From patent US11623944B2, “Paenibacillus strain, antifungal compounds, and methods for their use” (Bayer CropScience LP, priority 2015, dated 2023)
Where a SMILES comes first, the peptide text is derived from it. Bridges are numbered along the chain shown (N, C = ends). [ ]: non-standard residue; d: D form. The star is where a group is joined. ξ: configuration not given here. Pentadecanoyl(3ξ-OH,15-Gua) = N=C(N)NCCCCCCCCCCCCC(O)CC(=O)*; d(aThr) = C[C@@H](O)[C@@H](N)C(=O)O

Tests used:
[1] = test system: Paenibacillus sp. strain NRRL B-50972; experiment: Antibiotic sensitivity on sLB agar; assay type: cell-based; settings: growth after 24, 48, 72 hours at 30° C.
[2] = test system: Botrytis cinerea (BOTRCI); experiment: In vitro antifungal 96-well plate assay (PRESTOBLUE); assay type: cell-based; settings: Minimum Inhibitory Concentration for 80%
Procedure: The in vitro antifungal 96-well plate assay utilizes the resazurin-based cell viability reagent PRESTOBLUE® as an indicator for fungal growth. […] The assay was prepared with three agricultural-relevant fungal diseases: Alternaria solani ([…]), Colletotrichum lagenarium (COLLLA), and Botrytis cinerea (BOTRCI).

[3] = test system: Colletotrichum lagenarium (COLLLA); experiment: as above; assay type: cell-based; settings: Minimum Inhibitory Concentration for 80%
[4] = test system: Pseudomonas syringae (PSDMTM); experiment: In vitro antibacterial 96-well plate assay (absorbance); settings: NDR = no inhibition of bacterial growth at the highest concentrations tested
Procedure: (§1) The in vitro antibacterial 96-well plate assay uses absorbance as an indicator for bacterial growth. The assay measures the potency of a sample to inhibit bacterial growth by comparing the absorbance of the untreated wells to the sample wells. The last dilution/concentration that inhibits the growth of the bacteria is called the MIC (minimum inhibitory concentration) and this value can be used to compare the efficacy of different samples. The assay was evaluated with three agricultural-relevant bacterial diseases: Xanthomonas campestris (XANTAV), Pseudomonas syringae (PSDM™), and Erwinia carotovora (ERWICA).

[5] = test system: Erwinia carotovora (ERWICA); experiment: as above; settings: NDR = no inhibition of bacterial growth at the highest concentrations tested
Procedure: as §1

[6] = test system: Xanthomonas campestris (XANTAV); experiment: as above
Procedure: as §1

[7] = test system: Alternaria solani (ALTESO); experiment: In vitro antifungal 96-well plate assay (PRESTOBLUE); assay type: cell-based; settings: for potency of asparagine analogue relative to its glutamine counterpart: Fusaricidin A vs Fusaricidin B, LiF08a vs LiF08b; for potency of asparagine analogue relative to its glutamine counterpart / relative potency of analogues differing at amino acid positions (2) and (3): FIG. 17; for relative potency of analogues differing at amino acid positions (2) and (3): Fusaricidin A, LiF05a, LiF06a, LiF08a compared; for Efficacy in % found: 0.25 mg/mL, alone

## O=C(N[C@H](CO)[C@H](O)c1ccc([N+](=O)[O-])cc1)C(Cl)Cl [Chloramphenicol]
[1]; antibiotic 5 μg/mL
  Sensitive/Resistant: Resistant

## CC[C@H]1OC(=O)[C@H](C)[C@@H](O[C@H]2C[C@@](C)(OC)[C@@H](O)[C@H](C)O2)[C@H](C)[C@@H](O[C@@H]2O[C@H](C)C[C@H](N(C)C)[C@H]2O)[C@](C)(O)C[C@@H](C)C(=O)[C@H](C)[C@@H](O)[C@]1(C)O [Erythromycin]
[1]; antibiotic 5 μg/mL
  Sensitive/Resistant: Sensitive

## CC(C)[C@@H]1NC(=O)[C@@H](C(C)C)NC(=O)[C@@H](NC(=O)CC(O)CCCCCCCCCCCCN=C(N)N)[C@@H](C)OC(=O)[C@@H](C)NC(=O)[C@@H](CC(N)=O)NC(=O)[C@@H]([C@@H](C)O)NC1=O (some centres unmarked) [Fusaricidin A] ({Pentadecanoyl(3ξ-OH,15-Gua)}-T[dV]V[d(aThr)][dN][dA]; ester 1-C)
[2]
  MIC80 BOTRCI: 1.5 ppm
[3]
  MIC80 COLLLA: 6.3 ppm
[4]
  MIC80 PSDMTM: NDR*
[5]
  MIC80 ERWICA: 75 ppm
[6]
  MIC80 XANTAV: 24 ppm
[7]
  potency of asparagine analogue relative to its glutamine counterpart: over twice more potent
  relative potency of analogues differing at amino acid positions (2) and (3): most potent
[7]; Minimum Inhibitory Concentration for 80%
  MIC80 ALTESO: 1.6 ppm
[7]; Table 23
  Efficacy in % found: 39.0%
[7]; Table 24
  Efficacy in % found: 42.0%

## CC[C@@H](C)[C@H]1NC(=O)[C@@H](NC(=O)CC(O)CCCCCCCCCCCCN=C(N)N)[C@@H](C)OC(=O)[C@@H](C)NC(=O)[C@@H](CC(N)=O)NC(=O)[C@@H]([C@@H](C)O)NC(=O)[C@H]([C@@H](C)CC)NC1=O (some centres unmarked) [LiF08a] ({Pentadecanoyl(3ξ-OH,15-Gua)}-T[dI]I[d(aThr)][dN][dA]; ester 1-C)
[7]
  potency of asparagine analogue relative to its glutamine counterpart: over twice more potent
  relative potency of analogues differing at amino acid positions (2) and (3): most potent

## CCC[C@@H]1C[C@@H](C(=O)N[C@@H]([C@H]2O[C@H](SC)[C@H](O)[C@@H](O)[C@H]2O)[C@@H](C)O)N(C)C1 [Lincomycin]
[1]; antibiotic 25 μg/mL
  Sensitive/Resistant: Resistant

## CN[C@@H]1[C@H](O)[C@H](NC)[C@H]2O[C@@]3(O)C(=O)C[C@@H](C)O[C@H]3O[C@@H]2[C@H]1O [Spectinomycin]
[1]; antibiotic 100-250 μg/mL
  Sensitive/Resistant: Resistant (growth, albeit reduced,

## CN(C)[C@@H]1C(=O)C(C(N)=O)=C(O)[C@@]2(O)C(=O)C3=C(O)c4c(O)cccc4[C@@](C)(O)[C@H]3C[C@@H]12 [Tetracyclin]
[1]; antibiotic 5 μg/mL
  Sensitive/Resistant: Sensitive
